From patent US4935418A, “Medical compositions of 1-aryloxy-2,3,4,5-tetrahydro-3-benzazepines and use thereof” (Hoechst-Roussel Pharmaceuticals Inc., priority 1988, dated 1990) come the findings set out here.

Holding throughout (type): in vivo
The subject of assay [1] is 2-phenyl-1,4-benzoquinone-induced writhing in mice. Kind of assay: 2-phenyl-1,4-benzoquinone-induced writhing test in mice. The note with it: Mus musculus, sc. The source says:
The compounds of the invention are also useful as analgesic agents due to their ability to alleviate pain in mammals. […] Exptl. Biol. Med., 95, 729 (1957)].
(In general: Writhing tests count abdominal constrictions after an irritant is injected.)

Assay [2] relates to 5-hydroxytryptophan induced seizures in rats. Nature of the assay: potentiation of 5-hydroxytryptophan induced seizures in rats. Conditions: Rattus norvegicus, ip, intraperitoneal, read-out: ED50 (potentiation of 5-hydroxytryptophan induced seizures in 50% of the animals). The source says: The antidepressant activities of some of the compounds of the invention expressed in terms of a potentiation of 5-hydroxytryptophan induced seizures in 50% of the animals is given in Table II.

For assay [3], the system named is tetrabenazine induced ptosis in mice. Nature of the assay: inhibition of tetrabenazine induced ptosis in mice. The note with it: Mus musculus, oral, read-out: ED50 (50% inhibition of tetrabenazine-induced ptosis). The source says: The antidepressant activities of some of the compounds of the invention expressed in terms of a 50% inhibition of ptosis of tetrabenazine-induced ptosis in mice is given in Table I.

Assay [4] has as its system spontaneous hypertensive rat. Kind of assay: antihypertensive activity in the spontaneous hypertensive rat, indirect tail cuff method. The note with it: 50 mg/kg of body weight, oral, three days, measured on third day. Here is the method: In this procedure a group of five animals are treated orally for three days with the test compound in relation to the control group of the same number. The drop in blood pressure is measured on the third day following administration.

Counter-ions that a name gives are not always drawn.

Compound `Clc1cccc(OC2CN(CCc3ccccc3)CCc3ccccc32)c1` (centres unmarked) [1-(m-Chlorophenoxy)-3-(2-phenylethyl)-2,3,4,5-tetrahydro-3-benzazepine oxalate] came in with an inhibition in vivo at 25 mg/kg in assay [1] (subcutaneous, mice) of 42%. Consider `Clc1cccc(OC2CN(CC3CC3)CCc3ccccc32)c1` (centres unmarked) [1-(m-Chlorophenoxy)-3-cyclopropylmethyl-2,3,4,5-tetrahydro-3-benzazepine oxalate], for which the inhibition in vivo at 25 mg/kg in assay [1] (subcutaneous, mice) came out at 66%. The term ED50 denotes the dose at which the effect has come halfway, by size or by number of responders. With `COc1cc2c(cc1OC)C(Oc1cccc(Cl)c1)CNCC2.O=C(O)C(=O)O` (centres unmarked) [1-(m-Chlorophenoxy)-7,8-dimethoxy-2,3,4,5-tetrahydro-3-benzazepine oxalate], the ED50 in assay [2] turned out to be 1.1 mg/kg; in assay [3], 4.2 mg/kg. On to `Br.COc1ccc(OC2CN(C)CCc3ccccc32)cc1` (centres unmarked) [1-(p-Methoxyphenoxy)-3-methyl-2,3,4,5-tetrhydro-3-benzazepine hydrobromide], for which, in assay [4], the “Decrease in Blood Pressure (mean arterial)” value (from here on “Decrease in Blood Pressure”) stood at 48 mm HG. Besides, the inhibition in vivo at 20 mg/kg in assay [1] (subcutaneous, mice) is 46%. For the compound `FC(F)(F)c1ccc(OC2CNCCc3ccccc32)cc1.O=C(O)C(=O)O` (centres unmarked) [1-(p-Trifluoromethylphenoxy)-2,3,4,5-tetrahydro-3-benzazepine oxalate], the ED50 in assay [2] worked out at 2.9 mg/kg. In the case of `CC(CN)N1CCc2ccccc2C(Oc2ccc(C(F)(F)F)cc2)C1` (centres unmarked) [3-(2-Amino-1-methyl)ethyl-2,3,4,5-tetrahydro-1-(p-trifluoromethylphenoxy)-3-benzazepine dioxalate], the “Decrease in Blood Pressure” value in assay [4] is 51 mm HG. As for `NCCN1CCc2ccccc2C(Oc2cccc(Cl)c2)C1.O=C(O)C(=O)O.O=C(O)C(=O)O` (centres unmarked) [3-(2-Aminoethyl)-1-(m-chlorophenoxy)-2,3,4,5-tetrahydro-3-benzazepine dioxalate], in assay [3], the ED50 amounted to 7.5 mg/kg. Consider `NCCN1CCc2ccccc2C(Oc2ccc(C(F)(F)F)cc2)C1.O=C(O)C(=O)O.O=C(O)C(=O)O` (centres unmarked) [3-(2-Aminoethyl)-2,3,4,5-tetrahydro-1-(p-trifluoromethylphenoxy)-3-benzazepine dioxalate], for which the “Decrease in Blood Pressure” value in assay [4] was found to be 61 mm HG. Turning to `CNCCN1CCc2ccccc2C(Oc2ccc(C(F)(F)F)cc2)C1.O=C(O)C(=O)O.O=C(O)C(=O)O` (centres unmarked) [3-(2-Methylaminoethyl)-2,3,4,5-tetrahydro-1-(p-trifluoromethylphenoxy)-3-benzazepine dioxalate], the “Decrease in Blood Pressure” value in assay [4] is listed as 33 mm HG. The compound `NCCCN1CCc2ccccc2C(Oc2ccc(C(F)(F)F)cc2)C1` (centres unmarked) [3-(3-Aminopropyl)-2,3,4,5-tetrahydro-1-(p-trifluoromethylphenoxy)-3-benzazepine dimaleate] registered an inhibition in vivo at 8.2 mg/kg in assay [1] (subcutaneous, 8.2 mg/kg, mice) of 50%. Consider `Br.Cc1ccc(OC2CN(C)CCc3ccccc32)cc1` (centres unmarked) [3-Methyl-1-(p-methylphenoxy)-2,3,4,5-tetrahydro-3-benzazepine Hydrobromide], for which the “Decrease in Blood Pressure” value in assay [4] was 35 mm HG. For `COc1cc2c(cc1OC)C(Oc1ccc(F)cc1)CNCC2.O=C(O)/C=C\C(=O)O` (centres unmarked) [7,8-Dimethoxy-1-(4-fluorophenoxy)-2,3,4,5-tetrahydro-3-benzazepine maleate], the ED50 in assay [2] amounted to 2.9 mg/kg. For the compound `COc1ccc(OC2CNCCc3cc(OC)c(OC)cc32)cc1.O=C(O)/C=C\C(=O)O` (centres unmarked) [7,8-Dimethoxy-1-(4-methoxyphenoxy)-2,3,4,5-tetrahydro-3-benzazepine maleate], in assay [2], the ED50 turned out to be 0.9 mg/kg. Compound `COc1ccc(OC2CN(C)CCc3cc(OC)c(OC)cc32)cc1` (centres unmarked) [7,8-Dimethoxy-1-(4-methoxyphenoxy)-3-methyl-2,3,4,5-tetrahydro-3-benzazepine hydrochloride] came in with an inhibition in vivo at 7.6 mg/kg in assay [1] (subcutaneous, 7.6 mg/kg, mice) of 50%. `COc1cc2c(cc1OC)C(Oc1ccccc1)CNCC2.O=C(O)C(=O)O` (centres unmarked) [7,8-Dimethoxy-1-phenoxy-2,3,4,5-tetrahydro-3-benzazepine oxalate]: the ED50 worked out at 0.85 mg/kg in assay [2] and 3.7 mg/kg in assay [3]. With `CCCN1CCc2cc(OC)c(OC)cc2C(Oc2ccccc2)C1.O=C(O)C(=O)O` (centres unmarked) [7,8-Dimethoxy-1-phenoxy-3-(n-propyl)-2,3,4,5-tetrahydro-3-benzazepine oxalate], the ED50 in assay [2] was determined as 0.7 mg/kg. For `COc1cc2c(cc1OC)C(Oc1ccc(C(F)(F)F)cc1)CNCC2` (centres unmarked) [7,8-Dimethoxy-2,3,4,5-tetrahydro-1-(p-trifluoromethylphenoxy)-3-benzazepineoxalate], the “Decrease in Blood Pressure” value in assay [4] was 49 mm HG. For the compound `COc1cc2c(cc1OC)C(Oc1ccc(C)cc1)CN(C)CC2` (centres unmarked) [7,8-Dimethoxy-3-methyl-1-(4-methylphenoxy)-2,3,4,5-tetrahydro-3-benzazepinemaleate], the ED50 in assay [2] was 0.9 mg/kg. On to `COc1cc2c(cc1OC)C(Oc1ccccc1)CN(C)CC2.O=C(O)C(=O)O` (centres unmarked) [7,8-Dimethoxy-3-methyl-1-phenoxy-2,3,4,5-tetrahydro-3-benzazepine oxalate], for which the inhibition in vivo at 20 mg/kg in assay [1] (subcutaneous, mice) was found to be 58%. The ED50 in assay [2] was 7.5 mg/kg; in assay [3], 3.8 mg/kg. On to `COc1cc2c(cc1OC)C(Oc1ccc(C(F)(F)F)cc1)CN(C)CC2.Cl` (centres unmarked) [7,8-Dimethoxy-3-methyl-2,3,4,5-tetrahydro-1-(p-trifluoromethylphenoxy)-3-benzazepine hydrochloride], for which the “Decrease in Blood Pressure” value in assay [4] amounted to 43 mm HG. The inhibition in vivo at 5.7 mg/kg in assay [1] (subcutaneous, 5.7 mg/kg, mice) is 50%.

Take `CNCCCN1c2ccccc2CCc2ccccc21` [desipramine, reference compound]: the ED50 in assay [3] was 2.3 mg/kg. In the case of `N=C(N)NCCN1CCCCCCC1` [guanethidine, reference compound], in assay [4], the “Decrease in Blood Pressure” value came to 20 mm HG.

In the case of `CCC(=O)O[C@](Cc1ccccc1)(c1ccccc1)[C@H](C)CN(C)C` [propoxyphene, reference compound], the inhibition in vivo at 3.9 mg/kg in assay [1] (read-out: Inhibition of Writhing) came out at 50%.
